Data published in patent US5637591A, “Antimicrobial and anticollagenase activity of phenazine-5, 10-dioxide and derivatives” (Fuji ImmunoPharmaceuticals Corp., priority 1995, dated 1997).
Where two headings read alike, the source gives them in different places.

How the values were obtained:
P. gingivalis = experiment: bone loss after oral colonization with P. gingivalis in mice, systemic administration; format: in vivo, BALB/c mice; settings: infected mice, IP daily; 25 d (2-methylphenazine-5,10-dioxide) or 40 d (Tetracycline)
Experimental: An animal model for testing the antimicrobial activity of the invention against P. gingivalis was conducted by inducing oral colonization of the microbe in BALB/c mice. Drug (2-methylphenazine-5,10-dioxide or Tetracycline) or control (2.5% cyclodextran) was administered intraperitoneally once each day for 25 days (2-methylphenazine-5,10-dioxide) or 40 days (Tetracycline). On the day following the last dose administration, the rear molars of the mice were swabbed and the swabs incubated in a growth medium to assess the presence of P. gingivalis. Mice were then sacrificed and jaw bones harvested for evaluation of bone loss.

[1] = format: in vivo; settings: for Other Signs of Toxicity: in vivo
Experimental: Toxicity was also evaluated in rodents via intravenous (IV) and oral (PO) routes of administration across a range of dose levels.

[2] = format: in vivo; settings: for Other Signs of Toxicity: mouse, in vivo, ip
Description: The potential for toxic side effects following systemic administration similar to the method used in the efficacy study was investigated by administering the compound 2-methylphenazine-5,10-dioxide to mice either in single or multiple intraperitoneal (IP) injections.

In the case of `Cc1ccc2c(c1)[n+]([O-])c1ccccc1[n+]2[O-]` [2-methylphenazine-5,10-dioxide], the “effect of treatment on bone loss” value (P. gingivalis) is reported as “reduced the observed bone loss”, the Deaths ([1]; Mice, 5 mg/kg IV, 25% Cremaphor, 1 administration) is reported as 0 and the Deaths ([1]; Mice, 5 mg/kg IV, 30% Encapsin CD, 1 administration) is reported as 0. For the same molecule, the Deaths ([1]; Mice, 5 mg/kg IV, 100% DMSO, 1 administration) was 0, the Deaths ([1]; Mice, 30 mg/kg IV, 10% Cremaphor, 1 administration) was 0 and the Deaths ([1]; Mice, 40 mg/kg IV, 25% Cremaphor, 1 administration) was 0. For the same molecule, the Deaths ([1]; Mice, 50 mg/kg IV, 30% Encapsin CD, 1 administration) was 0, the Deaths ([1]; Mice, 800 mg/kg PO, 100% Cremaphor, 1 administration) was 0 and the Deaths ([1]; Mice, 1000 mg/kg PO, 100% Cremaphor, 1 administration) was 1/2. For the same molecule, the Deaths ([1]; Rats, 5 mg/kg IV, 20% Cremaphor, 1 administration) was 0, the Deaths ([1]; Rats, 10 mg/kg IV, 25% Encapsin CD/10% DMSO, 1 administration) was 0 and the Deaths ([1]; Rats, 20 mg/kg IV, 30% Encapsin CD, 1 administration) was 0. The Deaths ([1]; Rats, 50 mg/kg PO, 2% Brij 35/Water, 1 administration) was 0, the Deaths ([1]; Rats, 50 mg/kg PO, 10% Brij 35/Mineral Oil, 1 administration) was 0 and the Deaths ([1]; Rats, 50 mg/kg PO, 10% Brij 35/Water, 1 administration) was 0. For the same molecule, the Deaths ([1]; Rats, 50 mg/kg PO, Water, 1 administration) was 0, the Deaths ([1]; Rats, 80 mg/kg PO, 10% Cremaphor, 1 administration) was 0 and the Deaths ([1]; Rats, 100 mg/kg PO, 2% Brij 35, 1 administration) was 0. It also gave a Deaths ([1]; Rats, 100 mg/kg PO, 10% Arlacel 83/Corn Oil, 1 administration) of 0, a Deaths ([1]; Rats, 100 mg/kg PO, 100% PEG400, 1 administration) of 0 and a Deaths ([1]; Rats, 100 mg/kg PO, 110% Encapsin CD, 1 administration) of 0. The Deaths ([1]; Rats, 200 mg/kg PO, 100% Cremaphor, 1 administration) was 0, the “Other Signs of Toxicity” value ([1]; mouse, iv, 5 mg/kg) was “NONE” and the “Other Signs of Toxicity” value ([1]; mouse, iv, 30 mg/kg) was “NONE”. For the same molecule, the “Other Signs of Toxicity” value ([1]; mouse, iv, 40 mg/kg) was “NONE”, the “Other Signs of Toxicity” value ([1]; mouse, iv, 50 mg/kg) was “Abnormal Clin Obs” and the “Other Signs of Toxicity” value ([1]; mouse, po, 800 mg/kg) was “NONE”. The “Other Signs of Toxicity” value ([1]; mouse, po, 1000 mg/kg) was “NONE”, the “Other Signs of Toxicity” value ([1]; rat, iv, 10 mg/kg) was “NONE” and the “Other Signs of Toxicity” value ([1]; rat, iv, 20 mg/kg) was “NONE”. For the same molecule, the “Other Signs of Toxicity” value ([1]; rat, po, 50 mg/kg) was “NONE”, the “Other Signs of Toxicity” value ([1]; rat, po, 80 mg/kg) was “NONE” and the “Other Signs of Toxicity” value ([1]; rat, po, 100 mg/kg) was “NONE”. For the same molecule, the “Other Signs of Toxicity” value ([1]; rat, po, 200 mg/kg) was “NONE”, the Deaths ([2]; mice, 15 mg/kg IP, 2.5% CD, 17 injections) was 0 and the Deaths ([2]; mice, 30 mg/kg IP, DMSO, 15 injections) was 0. For the same molecule, the Deaths ([2]; mice, 60 mg/kg IP, 10% CD, 1 injection) was 0, the “toxicity” value ([2]; mice, IP, at several times the therapeutic dose) was “non-toxic” and the “Other Signs of Toxicity” value ([2]; 15 mg/kg) was “NONE”. The “Other Signs of Toxicity” value ([2]; 30 mg/kg) was “NONE” and the “Other Signs of Toxicity” value ([2]; 60 mg/kg) was “NONE”.
